Values quoted from earlier work in US8969340B2, “Methods for treating chronic pelvic pain syndrome” (Northwestern University, priority 2004, dated 2015).
Like-named read-outs stand apart in the source and are kept apart here.

Target: T1, CCR-2 receptor (Homo sapiens, UniProt P41597)
T1 sequence (P41597 1-360 isoform P41597-2): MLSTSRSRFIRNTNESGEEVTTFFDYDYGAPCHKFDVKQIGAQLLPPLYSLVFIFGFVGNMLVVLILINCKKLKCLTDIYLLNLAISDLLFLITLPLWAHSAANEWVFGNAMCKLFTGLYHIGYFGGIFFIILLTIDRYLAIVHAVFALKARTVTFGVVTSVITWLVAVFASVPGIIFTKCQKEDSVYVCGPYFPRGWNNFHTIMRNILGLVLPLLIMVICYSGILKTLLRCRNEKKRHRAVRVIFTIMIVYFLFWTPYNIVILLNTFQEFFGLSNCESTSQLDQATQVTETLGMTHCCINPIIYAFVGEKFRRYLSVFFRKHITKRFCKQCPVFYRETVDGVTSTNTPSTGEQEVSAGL
Details: indolopiperidines

In the case of O=S(=O)(NCCCCCN1CCC(c2c[nH]c3ccccc23)CC1)c1ccc(Cl)c(Cl)c1 [compound 10], the Ki (variation of X and R) is given as > 10 µM.

For O=C(/C=C/c1ccc(Cl)c(Cl)c1)NCCN1CCC(c2c[nH]c3ccccc23)CC1 [compound 30], the Ki (variation of chain length n) is listed as > 10 µM.
